According to article PMC12254266, “Multicolored sequential resonance energy transfer for detection of simultaneous ligand binding at G protein-coupled receptors” (Nature Communications, 2025):
Several values for one entry are separate records, joined by “and”; a condition that tells them apart may be missing. Identical values can stand only once.

What was measured:
[1] = molecular target: T1, Nluc-FFA1 (Homo sapiens, UniProt O14842); experiment: NanoBRET binding (saturation, competition, kinetics) at N terminal Nluc tagged FFA1; conditions: technical duplicates; for Specific BRET (690/450)%: Figure 4Ci; for Specific BRET (540/450)%: Figure 4Cii
T1 construct: expressed in transfected cells
T1 sequence (O14842 whole entry): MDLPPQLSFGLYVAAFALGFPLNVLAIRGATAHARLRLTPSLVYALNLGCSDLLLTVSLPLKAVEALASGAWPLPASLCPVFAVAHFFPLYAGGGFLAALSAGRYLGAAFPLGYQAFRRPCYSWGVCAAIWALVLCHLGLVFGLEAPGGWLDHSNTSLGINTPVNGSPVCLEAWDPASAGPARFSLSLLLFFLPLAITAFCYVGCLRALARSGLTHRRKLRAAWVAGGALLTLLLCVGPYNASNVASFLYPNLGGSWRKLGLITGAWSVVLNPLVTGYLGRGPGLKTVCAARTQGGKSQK
Method: Nluc-FFA1 or FFA1-Nluc Flp-In T-REx 293 cells were plated at 50,000 cells per well in poly-D-lysine coated white 96-well plates. Cells were cultured for 24 h in the plate before medium was replaced with medium containing 100 ng/mL of doxycycline to induce receptor expression. After culturing for a further 24 h, medium was removed, cells were washed with HBSS and incubated in HBSS for 30 min. To start the assay, NanoGlo substrate (Promega, N1110) was added to the cells at a 1:800 final dilution and incubated for 10 min at 37 °C. For endpoint assays, including both saturation and competition binding, test ligands were then added, including both fluorescent and unlabelled competing ligands as indicated, and plates incubated for a further 5 min at 37 °C. NanoBRET was then quantified in a CLARIOstar microplate reader (BMG Labtech) by measuring luminescent emission with the monochrometer set for the Nluc donor at 450–60 nm, and acceptor luminescent emission 540–60 nm (NBD), 600–80 nm (Cy3.5) or 690–100 nm (SulfoCy5), depending on which fluorophore was being tested. The acceptor/donor BRET ratio was then taken as a measure of fluorophore binding. For kinetic on then off NanoBRET experiments plates were washed the same way and substrate was added to the same concentration. However, 10 min after substrate was added plates were inserted into the CLARIOstar microplate reader set to 25 °C to take repeated measurements of luminescent emission for both the donor and the acceptor fluorophore being used. After 5 min of background measurements, the indicated concentration of fluorescent ligand was added using the plate reader injector and luminescent emission was monitored for ~10 min before the reader was paused to manually add a high concentration of appropriate competing ligand to initiate dissociation. The plate was returned to the reader and luminescence measurements were continued for a further 30 min to monitor dissociation of the fluorescent ligand. For kinetic experiments using multiple concentrations of fluorescent ligand, cells were placed in the plate reader immediately after the addition of Nano-Glo substrate and luminescent measurements were taken. After 5 min, the reader was paused to add the indicated concentrations of fluorescent ligand, before measurements were continued. To set non-specific binding for kinetic experiments, the indicated competing ligand was added 5 min before the addition of the fluorescent ligand.

[2] = molecular target: FFA1-Nluc (Homo sapiens, UniProt O14842); experiment: DISCo-BRET (endpoint, spectra scan, kinetics) with TUG-2591 and TUG-2597 at C terminal Nluc tagged FFA1; type: binding; design: expressed in transfected cells; conditions: for Specific BRET (540/450), % of control: Figure 4Bi, single replicate values (technical duplicate); for Specific BRET (690/540), % of control: technical duplicate
Chain of FFA1-Nluc (O14842 whole entry): as above
Method: Nluc-FFA1 or FFA1-Nluc Flp-In T-REx 293 cells were plated at 50,000 cells per well in poly-D-lysine coated white 96-well plates. Cells were cultured for 24 h in the plate before medium was replaced with medium containing 100 ng/mL of doxycycline to induce receptor expression. After culturing for a further 24 h, culture medium was removed, cells washed with HBSS and incubated in HBSS for 30 min. For all DISCo-BRET formats Nano-Glo substrate was then added at a 1:800 final dilution and cells incubated for 10 min. Following substrate addition experimental set up different among the three formats: endpoint, spectra scan, and kinetics.
For endpoint experiments all fluorescent and unlabelled ligands were added to the cells and incubated for 5 min at 37 °C. Luminescent emission was then measured using a CLARIOstar microplate reader with monochromator set at 450–60 nm (Nluc), 540−60 nm (NBD) and 690–100 nm (SulfoCy5). BRET ratios were then calculated as either SulfoCy5 emission divided by NBD emission, SulfoCy5 emission divided by Nluc emission, or NBD emission divided by Nluc emission.
For spectra scan experiments all indicated fluorescent and unlabelled ligands were added to the cells and cells incubated for 5 min at 37 °C. Luminescence emissions were then measured from each well of the plate from 440 nm – 740 nm with a 5 nm resolution using a CLARIOstar microplate. Luminescent emission spectra were then normalised as a percentage of the maximal Nluc emission peak ( ~ 460 nm), then subtracted with the spectrum obtained in the presence of high concentrations of ligands competing for both binding sites to obtain specific BRET binding spectra.
In kinetic DISCo-BRET experiments plates were placed directly in a CLARIOstar plate reader set to 25 °C 10 min after Nano-Glo substrate addition. Luminescent measurements were then taken with three sequential measurements per well with the monochromator set to 450–60 nm (Nluc), 540 - 60 nm (NBD) and 690–100 nm (SulfoCy5) taken in 20 or 30 s intervals. After 5 min of background measurements, the plate reader was paused for the first indicated fluorescent ligand(s) addition, before immediately returning the plate to the reader to continue luminescence readings. After 5 min, the reader was again paused to add the second fluorescent ligand (association assays) or competing ligand(s) (dissociation assays), before immediately continuing the measurements for the indicated time. Non-specific control binding was obtained by adding the indicated competing ligand(s) 5 min prior to the addition of the first fluorescent ligand.

For `Cc1cc(OCCCS(C)(=O)=O)cc(C)c1-c1cccc(COc2ccc3c(c2)OC[C@H]3CC(=O)O)c1` [TAK-875], which “Specific BRET (690/450)%” value ([1]; log[Ligand] -6) is on record?
Its value is 10.18% and 12.73% and 3.99% and 7.92% and 4.81% and 6.50%.

And the “Specific BRET (690/450)%” value ([1]; log[Ligand] -6.5)?
The value was 32.21% and 35.14% and 21.21% and 27.75% and 22.79% and 22.32%.

What about the “Specific BRET (690/450)%” value ([1]; log[Ligand] -7) of the same compound?
Its value is 65.25% and 65.98% and 70.04% and 73.07% and 59.65% and 56.69%.

What about the “Specific BRET (690/450)%” value ([1]; log[Ligand] -7.5) of the same compound?
The value was 85.12% and 83.85% and 95.80% and 94.83% and 87.89% and 88.68%.

And the “Specific BRET (690/450)%” value ([1]; log[Ligand] -8)?
Its value is 89.18% and 88.01% and 105.30% and 110.61% and 94.39% and 90.53%.

And the “Specific BRET (690/450)%” value ([1]; log[Ligand] -9)?
The value was 97.11% and 97.99% and 104.48% and 114.53% and 100.63% and 97.67%.

And the “Specific BRET (690/450)%” value ([1]; log[Ligand] -10)?
The value was 87.86% and 92.46% and 110.54% and 109.16% and 102.75% and 97.62%.

What about the “Specific BRET (690/450)%” value ([1]; log[Ligand] -11) of the same compound?
Its value is 100.29% and 99.71% and 99.72% and 100.28% and 98.52% and 101.48%.

What about the “Specific BRET (540/450)%” value ([1]; log[Ligand] -9) of the same compound?
The value was 172.87% and 190.47% and 142.88% and 120.34% and 106.26% and 112.65% and 111.64% and 106.85%.

And the “Specific BRET (540/450)%” value ([1]; log[Ligand] -10)?
The value was 149.59% and 142.25% and 115.93% and 128.15% and 104.61% and 106.65% and 101.74% and 108.27%.

What about the “Specific BRET (540/450)%” value ([1]; log[Ligand] -11) of the same compound?
Its value is 103.21% and 96.79% and 95.91% and 104.09% and 99.52% and 100.48% and 105.48% and 94.52%.

And the “Specific BRET (540/450), % of control” value ([2]; log[Ligand] -6)?
Its value is 467.51 % of control and 353.62 % of control and 390.67 % of control and 390.47 % of control and 245.96 % of control and 264.46 % of control and 322.48 % of control and 320.38 % of control.

And the “Specific BRET (540/450), % of control” value ([2]; log[Ligand] -6.5)?
Its value is 416.30 % of control and 439.27 % of control and 347.06 % of control and 353.35 % of control and 259.50 % of control and 260.52 % of control and 247.59 % of control and 261.94 % of control.

And the “Specific BRET (540/450), % of control” value ([2]; log[Ligand] -7)?
Its value is 359.13 % of control and 319.17 % of control and 300.41 % of control and 327.99 % of control and 232.12 % of control and 230.66 % of control and 238.32 % of control (2×).

What about the “Specific BRET (540/450), % of control” value ([2]; log[Ligand] -7.5) of the same compound?
Its value is 230.54 % of control and 249.60 % of control and 216.23 % of control and 242.80 % of control and 172.25 % of control and 154.77 % of control and 142.78 % of control and 178.30 % of control.

What about the “Specific BRET (540/450), % of control” value ([2]; log[Ligand] -8) of the same compound?
The value was 168.77 % of control and 177.73 % of control and 170.59 % of control and 182.76 % of control and 139.62 % of control and 128.26 % of control and 117.24 % of control and 129.48 % of control.

What about the “Specific BRET (540/450), % of control” value ([2]; log[Ligand] -9) of the same compound?
Its value is 109.76 % of control and 130.42 % of control and 118.05 % of control and 144.22 % of control and 109.32 % of control and 101.46 % of control and 92.91 % of control and 104.81 % of control.

What about the “Specific BRET (690/540), % of control” value ([2]; log[Ligand] -9) of the same compound?
The value was 98.23 % of control.

What about the “Specific BRET (540/450), % of control” value ([2]; log[Ligand] -10) of the same compound?
Its value is 110.45 % of control and 140.76 % of control and 99.39 % of control and 126.77 % of control and 105.68 % of control and 97.52 % of control and 91.86 % of control and 108.31 % of control.

What about the “Specific BRET (690/540), % of control” value ([2]; log[ligand] -8) of the same compound?
The value was 82.90 % of control.

What about the “'bottom' of the IC50 curve, DISCo-BRET NBD/Nluc” value ([2]; percentage of binding obtained in the absence of competing ligand) of the same compound?
Its value is 360%.

What about the “'bottom' of the IC50 curve, DISCo-BRET SulfoCy5/NBD” value ([2]; percentage of binding obtained in the absence of competing ligand, 100 nM TUG-2591 and […] TUG-2597) of the same compound?
The value was -3.0%.
